# Results reported in PubChem BioAssay (NCI).
#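 In this assay, cells in 96-well plates receive the compound at five concentrations for 48 hours. Endpoints are linearly interpolated between the surrounding concentrations. Definition used: TGI = concentration required for complete inhibition of growth.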
# Assays:
# Test in all cases: growth of human tumour cells (NCI), 48 h
# ACHN renal = test system: ACHN renal
# COLO 205 colon = test system: COLO 205 colon
# DMS 114 small cell lung = test system: DMS 114 small cell lung
# HCC-2998 colon = test system: HCC-2998 colon
# HCT-116 colon = test system: HCT-116 colon
# HL-60(TB) leukemia = test system: HL-60(TB) leukemia
# HOP-62 NSCLC = test system: HOP-62 NSCLC
# HOP-92 NSCLC = test system: HOP-92 NSCLC
# HT29 colon = test system: HT29 colon
# IGROV1 ovarian = test system: IGROV1 ovarian
# KM12 colon = test system: KM12 colon
# KM20L2 colon = test system: KM20L2 colon
# LXFL 529 NSCLC = test system: LXFL 529 NSCLC
# M14 melanoma = test system: M14 melanoma
# M19-MEL melanoma = test system: M19-MEL melanoma
# MOLT-4 leukemia = test system: MOLT-4 leukemia
# NCI-H23 lung = test system: NCI-H23 lung
# NCI-H460 lung = test system: NCI-H460 lung
# NCI-H522 lung = test system: NCI-H522 lung
# OVCAR-3 ovarian = test system: OVCAR-3 ovarian
# OVCAR-4 ovarian = test system: OVCAR-4 ovarian
# OVCAR-5 ovarian = test system: OVCAR-5 ovarian
# RPMI-8226 leukemia = test system: RPMI-8226 leukemia
# SF-268 CNS = test system: SF-268 CNS
# SF-295 CNS = test system: SF-295 CNS
# SF-539 CNS = test system: SF-539 CNS
# SK-MEL-2 melanoma = test system: SK-MEL-2 melanoma
# SK-MEL-28 melanoma = test system: SK-MEL-28 melanoma
# SK-OV-3 ovarian = test system: SK-OV-3 ovarian
# SNB-75 CNS = test system: SNB-75 CNS
# SNB-78 CNS = test system: SNB-78 CNS
# SR leukemia = test system: SR leukemia
# U251 CNS = test system: U251 CNS
# UACC-257 melanoma = test system: UACC-257 melanoma
# UACC-62 melanoma = test system: UACC-62 melanoma
# UO-31 renal = test system: UO-31 renal
# 786-0 renal = test system: 786-0 renal
# A498 renal = test system: A498 renal
# A549 NSCLC = test system: A549 NSCLC
# BT-549 breast = test system: BT-549 breast
# CAKI-1 renal = test system: CAKI-1 renal
# DU-145 prostate = test system: DU-145 prostate
# EKVX NSCLC = test system: EKVX NSCLC
# HCT-15 colon = test system: HCT-15 colon
# HS 578T breast = test system: HS 578T breast
# K-562 leukemia = test system: K-562 leukemia
# LOX IMVI melanoma = test system: LOX IMVI melanoma
# MALME-3M melanoma = test system: MALME-3M melanoma
# MCF7 breast = test system: MCF7 breast
# MDA-MB-231 breast = test system: MDA-MB-231 breast
# MDA-MB-435 = test system: MDA-MB-435
# MDA-N = test system: MDA-N
# NCI-H226 lung = test system: NCI-H226 lung
# NCI/ADR-RES ovarian = test system: NCI/ADR-RES ovarian
# OVCAR-8 ovarian = test system: OVCAR-8 ovarian
# PC-3 prostate = test system: PC-3 prostate
# RXF 393 renal = test system: RXF 393 renal
# SK-MEL-5 melanoma = test system: SK-MEL-5 melanoma
# SN12C renal = test system: SN12C renal
# SNB-19 CNS = test system: SNB-19 CNS
# SW-620 colon = test system: SW-620 colon
# T-47D breast = test system: T-47D breast
# TK-10 renal = test system: TK-10 renal
structure (smiles),measurement,setting,value
Cc1cnc2cc(Cl)ccc2c1NCCN(CC(C)C)CC(C)C,TGI,ACHN renal,> 100 µM
same,TGI,COLO 205 colon,> 100 µM
same,TGI,DMS 114 small cell lung,> 100 µM
same,TGI,HCC-2998 colon,> 100 µM
same,TGI,HCT-116 colon,> 100 µM
same,TGI,HL-60(TB) leukemia,> 100 µM
same,TGI,HOP-62 NSCLC,> 100 µM
same,TGI,HOP-92 NSCLC,85.3 µM
same,TGI,HT29 colon,> 100 µM
same,TGI,IGROV1 ovarian,> 100 µM
same,TGI,KM12 colon,> 100 µM
same,TGI,KM20L2 colon,> 100 µM
same,TGI,LXFL 529 NSCLC,> 100 µM
same,TGI,M14 melanoma,> 100 µM
same,TGI,M19-MEL melanoma,> 100 µM
same,TGI,MOLT-4 leukemia,> 100 µM
same,TGI,NCI-H23 lung,> 100 µM
same,TGI,NCI-H460 lung,> 100 µM
same,TGI,NCI-H522 lung,> 100 µM
same,TGI,OVCAR-3 ovarian,> 100 µM
same,TGI,OVCAR-4 ovarian,> 100 µM
same,TGI,OVCAR-5 ovarian,> 100 µM
same,TGI,RPMI-8226 leukemia,> 100 µM
same,TGI,SF-268 CNS,> 100 µM
same,TGI,SF-295 CNS,> 100 µM
same,TGI,SF-539 CNS,> 100 µM
same,TGI,SK-MEL-2 melanoma,> 100 µM
same,TGI,SK-MEL-28 melanoma,> 100 µM
same,TGI,SK-OV-3 ovarian,> 100 µM
same,TGI,SNB-75 CNS,> 100 µM
same,TGI,SNB-78 CNS,> 100 µM
same,TGI,SR leukemia,> 100 µM
same,TGI,U251 CNS,> 100 µM
same,TGI,UACC-257 melanoma,> 100 µM
same,TGI,UACC-62 melanoma,> 100 µM
same,TGI,UO-31 renal,> 100 µM
Cc1ccc(C2=NN=C3C(c4ccccc4)=Nc4ccccc4N3C2)cc1,TGI,786-0 renal,> 50.7 µM
same,TGI,A498 renal,> 100 µM
same,TGI,A549 NSCLC,> 100 µM
same,TGI,ACHN renal,> 100 µM
same,TGI,BT-549 breast,> 100 µM
same,TGI,CAKI-1 renal,> 100 µM
same,TGI,COLO 205 colon,> 100 µM
same,TGI,DU-145 prostate,32.3 µM
same,TGI,EKVX NSCLC,> 42.6 µM
same,TGI,HCC-2998 colon,> 100 µM
same,TGI,HCT-116 colon,> 83.7 µM
same,TGI,HCT-15 colon,> 100 µM
same,TGI,HL-60(TB) leukemia,9.64 µM
same,TGI,HOP-62 NSCLC,> 63.8 µM
same,TGI,HOP-92 NSCLC,> 72.9 µM
same,TGI,HS 578T breast,40 µM
same,TGI,HT29 colon,> 81.1 µM
same,TGI,IGROV1 ovarian,> 100 µM
same,TGI,K-562 leukemia,> 100 µM
same,TGI,KM12 colon,> 100 µM
same,TGI,LOX IMVI melanoma,> 100 µM
same,TGI,M14 melanoma,34.4 µM
same,TGI,MALME-3M melanoma,47.2 µM
same,TGI,MCF7 breast,> 89.3 µM
same,TGI,MDA-MB-231 breast,> 100 µM
same,TGI,MDA-MB-435,> 100 µM
same,TGI,MDA-N,> 100 µM
same,TGI,MOLT-4 leukemia,> 35.5 µM
same,TGI,NCI-H226 lung,> 100 µM
same,TGI,NCI-H23 lung,> 100 µM
same,TGI,NCI-H460 lung,18.6 µM
same,TGI,NCI-H522 lung,26.8 µM
same,TGI,NCI/ADR-RES ovarian,> 100 µM
same,TGI,OVCAR-3 ovarian,10.4 µM
same,TGI,OVCAR-4 ovarian,21.8 µM
same,TGI,OVCAR-5 ovarian,99.6 µM
same,TGI,OVCAR-8 ovarian,> 100 µM
same,TGI,PC-3 prostate,> 100 µM
same,TGI,RPMI-8226 leukemia,> 73 µM
same,TGI,RXF 393 renal,33.7 µM
same,TGI,SF-268 CNS,> 49.4 µM
same,TGI,SF-295 CNS,> 100 µM
same,TGI,SF-539 CNS,> 100 µM
same,TGI,SK-MEL-2 melanoma,> 100 µM
same,TGI,SK-MEL-28 melanoma,> 100 µM
same,TGI,SK-MEL-5 melanoma,32.8 µM
same,TGI,SK-OV-3 ovarian,85.7 µM
same,TGI,SN12C renal,> 100 µM
same,TGI,SNB-19 CNS,> 78.3 µM
same,TGI,SR leukemia,> 100 µM
same,TGI,SW-620 colon,> 100 µM
same,TGI,T-47D breast,> 100 µM
same,TGI,TK-10 renal,1.78 µM
same,TGI,U251 CNS,> 81.1 µM
same,TGI,UACC-257 melanoma,33.6 µM
same,TGI,UACC-62 melanoma,> 100 µM
same,TGI,UO-31 renal,> 42 µM
